Source: US20240018146A1, “COMPOSITIONS AND METHODS OF USING THE SAME FOR TREATMENT OF NEURODEGENERATIVE AND MITOCHONDRIAL DISEASE” (MITOKININ, INC., priority 2020, published 2024)
Where two headings read alike, the source gives them in different places.

Legend:
Type in all cases: cell-based
HeLa MKYP cells [1] = test: Human mitophagy assay (HeLa mKeima assay, FACS); settings: read-out: Mitophagy induction EC50
Outline: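 Mitophagy, read by FACS as the share of cells showing the lysosomal mtKeima emission shift, followed 6 h of 1 uM FCCP/oligomycin stimulation. Before that, HeLa MKYP cells spent 16 h with compound over a concentration range.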

HeLa MKYP cells [2] = test: Cell death measured by DAPI staining, with 1 μM FCCP/oligomycin or no toxin (no FO)
Outline: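 Cell death was read by DAPI staining after 6–6.5 h compound exposure in HeLa MKYP cells, either with 1 μM FCCP/oligomycin or without toxin. H2O2 served as the cell-death control.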

[3] = Mitotoxicity / Mitotox safety margin (therapeutic window)
pS129 α-syn = test: Preformed fibril (PFF) model in primary neuron culture, pS129 α-syn; settings: increasing doses
Experimental: 4. Preformed Fibril Model
Mouse and human alpha-synuclein monomers have been sourced commercially, then pre-formed fibrils have been generated as per the detailed protocol provided by the MJFF. For in vitro experiments primary hippocampal neurons isolated from P0 pups were grown for 7 days after which PFFs at 5 ug/ml were introduced Pre-formed fibrils will be introduced via stereotactic injection into the striatum of wt (C57BL/6J, Jax #000664) and transgenic A53T mice (B6;C3-Tg(Prnp-SNCA*A53T)83Vle/J, Jax #004479). Cohorts of drug-treated (oral gavage) and untreated animals will then be allowed to age for up to 6 months, at which point they will be sacrificed and perfused. Brains will be removed and fixed, then sectioned for analysis. We anticipate that untreated A53T animals will show significant spreading of aggregated alpha-synuclein pathology and pS129 staining, as well as some possible neurodegeneration; wt animals are also expected to show pS129 synuclein staining and synuclein aggregation, albeit less than that seen in the A53T background.

SMILES | EC50 (HeLa MKYP cells [1]; Homo sapiens, HeLa) [nM] | Highest safe dose (cytotoxicity; no FO; safe means DAPI+ <20%) (HeLa MKYP cells [2]) [µM] | Max % death with 1 μM FO (HeLa MKYP cells [2]) [%] | Mito-Safety Index (highest safe dose/EC50) [3] | Highest safe dose (μM) (mitotox or cytotox) [3] [µM] | pS129 α-syn (250-12) in primary neuron culture (pS129 α-syn) | pS129 α-syn (monomer) in primary neuron culture (pS129 α-syn) | pS129 α-syn in primary neuron culture (pS129 α-syn) | EC50 (HeLa MKYP cells [1]) [nM]
C[C@H]1CN([C@H]2CCc3ccccc3[C@@H]2Nc2ncnc3[nH]c(C(F)(F)F)cc23)CCO1 (single isomer, unassigned) [EP-0040503] | 130 | 25.0 | 7.4 | 69.05 | 9.1 | reduces | reduces | reduces | 
c1ccc2c(c1)OCC(N1CC3CCOC3C1)C2Nc1ncnc2[nH]c(C3CC3)cc12 (single isomer, unassigned) [EP-0041668] |  | 25.0 | 8.0 |  |  | reduces | reduces | reduces | 140
c1ccc2c(c1)OCC(N1CC3CCOC3C1)C2Nc1ncnc2[nH]c(C3CC3)cc12 (single isomer, unassigned) [EP-0041670] |  | 25.0 | 5.4 |  |  | reduces | reduces | reduces | 460
c1ccc2c(c1)CC[C@H](C1CCOCC1)[C@H]2Nc1ncnc2[nH]c(C3CC3)cc12 [EP-0040726] | 20 | 25.0 | 20.5 | 100.89 | 2.1 |  |  |  | 
c1ccc2c(c1)OC[C@@H](C1CCOCC1)[C@@H]2Nc1ncnc2[nH]c(C3CC3)cc12 [EP-0040729] | 60 | 25.0 | 17.1 | 52.06 | 3.2 |  |  |  | 
c1ccc2c(c1)CC[C@H](N1C[C@@H]3COC[C@H]3C1)[C@H]2Nc1ncnc2[nH]c(C3CC3)cc12 [EP-0040768] | 50 | 25.0 | 33.1 | 57.75 | 3.0 |  |  |  | 
COC1CN([C@H]2COc3ccccc3[C@@H]2Nc2ncnc3[nH]c(C4CC4)cc23)C1 [EP-0040847] |  | 25.0 | 5.2 |  | 25.0 |  |  |  | > 25000
COC1CN([C@@H]2COc3ccccc3[C@H]2Nc2ncnc3[nH]c(C4CC4)cc23)C1 [EP-0040848] | 160 | 25.0 | 10.6 | 152.94 | 25.0 |  |  |  | 
COC1CN([C@H]2COc3ccccc3[C@@H]2Nc2ncnc3[nH]c(C(F)(F)F)cc23)C1 [EP-0040849] |  | 25.0 | 5.2 | 2.61 | 25.0 |  |  |  | 9590
C[C@@H]1CN([C@@H]2COc3ccccc3[C@H]2Nc2ncnc3[nH]c(C(F)(F)F)cc23)C[C@H](C)O1 [EP-0040943] | 50 | 25.0 | 20.9 | 47.50 | 2.3 |  |  |  | 
C[C@@H]1CN([C@H]2COc3ccccc3[C@@H]2Nc2ncnc3[nH]c(C4CC4)cc23)C[C@H](C)O1 [EP-0040944] | 1220 | 25.0 | 6.3 | 20.51 | 25.0 |  |  |  | 
C[C@@H]1CN([C@@H]2COc3ccccc3[C@H]2Nc2ncnc3[nH]c(C4CC4)cc23)C[C@H](C)O1 [EP-0040945] | 40 | 25.0 | 18.4 | 27.95 | 1.2 |  |  |  | 
C[C@@H]1CN([C@H]2COc3cc(F)ccc3[C@@H]2Nc2ncnc3[nH]c(C(F)(F)F)cc23)C[C@H](C)O1 [EP-0040946] | > 25000 |  | 4.8 |  | 25.0 |  |  |  | 
